Reference: ChEMBL document CHEMBL1201862, “PubChem BioAssay data set” (2004)
Calls of active or inactive are those of the source.

Tests used:
[1] = target: Mothers against decapentaplegic homolog 3 (Homo sapiens, UniProt P84022); experiment: blockers of Smad3 complex formation in lysate – cell lysate, secondary confirmation, chemiluminescent ELISA, HEK293 lysate, dose response (AID 1058); format: functional
Procathepsin L = Procathepsin L (Homo sapiens, UniProt P07711); experiment: CTSL1 protease inhibition – biochemical, QFRET, 1536-well, counter-screen for M1/M17 aminopeptidase inhibitor project, dose response (AID 2214)
Aspartyl aminopeptidase = target: T1, Aspartyl aminopeptidase (Plasmodium falciparum 3D7, UniProt Q8I2J3); experiment: Counterscreen for inhibitors of M1 and M17 aminopeptidases: QFRET-based biochemical high throughput dose response assay for inhibitors of the Plasmodium falciparum M18 Aspartyl Aminopeptidase (PFM18AAP). [Related PubChem assays: 1619 (Screening assay (M17LAP inhibitors).), 1445 (Screening assay (M1AAP inhibitors).)]
T1 sequence (Q8I2J3 whole entry): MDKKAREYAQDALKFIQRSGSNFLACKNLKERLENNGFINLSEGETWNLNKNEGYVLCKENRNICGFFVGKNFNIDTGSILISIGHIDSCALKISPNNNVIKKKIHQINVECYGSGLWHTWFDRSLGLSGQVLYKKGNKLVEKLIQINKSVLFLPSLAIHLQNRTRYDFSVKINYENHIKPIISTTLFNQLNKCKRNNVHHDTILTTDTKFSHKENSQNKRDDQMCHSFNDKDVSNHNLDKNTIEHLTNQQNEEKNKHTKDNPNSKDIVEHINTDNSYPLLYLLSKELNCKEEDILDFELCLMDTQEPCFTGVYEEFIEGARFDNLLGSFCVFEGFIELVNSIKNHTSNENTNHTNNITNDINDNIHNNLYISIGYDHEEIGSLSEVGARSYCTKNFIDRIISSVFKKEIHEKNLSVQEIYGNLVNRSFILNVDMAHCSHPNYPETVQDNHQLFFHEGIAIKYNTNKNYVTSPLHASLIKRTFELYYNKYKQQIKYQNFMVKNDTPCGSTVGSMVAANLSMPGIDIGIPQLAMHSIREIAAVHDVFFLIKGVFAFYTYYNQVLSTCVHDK

Leucine aminopeptidase = target: T2, Leucine aminopeptidase (Plasmodium falciparum 3D7, UniProt Q8IL11); experiment: P. falciparum M17LAP inhibitors, primary screen, biochemical, fluorogenic H-Leu-NHMec substrate, 1536-well (AID 1619); format: functional
T2 sequence (Q8IL11 whole entry): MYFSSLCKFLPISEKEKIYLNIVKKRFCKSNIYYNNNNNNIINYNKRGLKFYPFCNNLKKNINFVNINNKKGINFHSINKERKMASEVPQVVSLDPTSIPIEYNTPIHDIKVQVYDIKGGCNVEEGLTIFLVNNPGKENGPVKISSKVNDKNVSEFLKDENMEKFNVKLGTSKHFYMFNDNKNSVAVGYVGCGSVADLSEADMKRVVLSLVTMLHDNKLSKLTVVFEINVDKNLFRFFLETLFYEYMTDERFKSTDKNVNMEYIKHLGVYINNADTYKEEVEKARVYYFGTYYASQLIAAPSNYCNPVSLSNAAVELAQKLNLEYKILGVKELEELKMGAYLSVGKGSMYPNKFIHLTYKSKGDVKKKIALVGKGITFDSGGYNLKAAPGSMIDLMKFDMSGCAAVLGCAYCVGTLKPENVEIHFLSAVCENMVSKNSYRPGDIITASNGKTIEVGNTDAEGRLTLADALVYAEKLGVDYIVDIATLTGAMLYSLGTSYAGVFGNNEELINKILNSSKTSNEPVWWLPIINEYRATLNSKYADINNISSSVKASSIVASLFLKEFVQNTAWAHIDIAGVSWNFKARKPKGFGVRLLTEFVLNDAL

Cytochrome P450 2D6 = Cytochrome P450 2D6 (Homo sapiens, UniProt P10635); experiment: qHTS Assay for Inhibitors and Substrates of Cytochrome P450 2D6. [Related pubchem assays: 410 ]; format: ADME; details: read-out: Potency
[2] = target: T3, Alkaline phosphatase, tissue-nonspecific isozyme (Homo sapiens, UniProt P05186)
T3 sequence (P05186 whole entry): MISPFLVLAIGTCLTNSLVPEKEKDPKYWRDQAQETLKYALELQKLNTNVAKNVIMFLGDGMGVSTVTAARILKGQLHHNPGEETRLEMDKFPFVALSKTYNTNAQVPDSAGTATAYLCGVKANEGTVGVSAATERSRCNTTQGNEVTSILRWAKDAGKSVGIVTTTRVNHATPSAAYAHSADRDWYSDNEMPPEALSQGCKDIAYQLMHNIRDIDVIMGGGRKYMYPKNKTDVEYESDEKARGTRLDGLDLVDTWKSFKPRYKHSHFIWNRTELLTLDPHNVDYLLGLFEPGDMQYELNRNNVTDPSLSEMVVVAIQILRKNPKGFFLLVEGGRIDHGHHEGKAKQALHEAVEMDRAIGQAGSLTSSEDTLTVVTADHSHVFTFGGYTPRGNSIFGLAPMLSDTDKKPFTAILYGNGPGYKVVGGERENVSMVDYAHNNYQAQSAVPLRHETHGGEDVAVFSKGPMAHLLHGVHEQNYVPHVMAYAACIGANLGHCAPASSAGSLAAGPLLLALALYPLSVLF

[3] = target: G-protein coupled receptor 55 (Homo sapiens, UniProt Q9Y2T6); experiment: inhibition of LPI-stimulated GPR55 beta-arrestin translocation – imaging, U2OS, beta-arrestin-GFP, LPI agonist, primary screen (AID 2013); format: functional;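 also: antagonist potency measured as reduced agonist-driven arrestin aggregation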
[4] = target: Heat shock protein HSP 90-alpha (Homo sapiens, UniProt P07900); format: functional, organism-based
[5] = Luminescence Cell-Based Dose Retest to Confirm Inhibitors of Cancer Stem Cells. [Related pubchem assays (depositor defined):AID2717, AID2721]; format: functional; details: Homo sapiens
[6] = IC50 of Artemis nuclease activity blockers – biochemical, fluorescence intensity, dose response (AID 720701); format: functional;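 also: Artemis endonuclease enzyme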
[7] = target: T4, Microphthalmia-associated transcription factor (Homo sapiens, UniProt O75030); experiment: reducers of TRPM1 reporter luminescence, concentration series – cell-based, SK-MEL-5, cherry-picked, set 3, MITF inhibitor project, dose response (AID 493073); format: functional;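 also: SK-MEL-5 melanoma cells with luciferase driven by the MITF target TRPM1 promoter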
T4 sequence (O75030 whole entry): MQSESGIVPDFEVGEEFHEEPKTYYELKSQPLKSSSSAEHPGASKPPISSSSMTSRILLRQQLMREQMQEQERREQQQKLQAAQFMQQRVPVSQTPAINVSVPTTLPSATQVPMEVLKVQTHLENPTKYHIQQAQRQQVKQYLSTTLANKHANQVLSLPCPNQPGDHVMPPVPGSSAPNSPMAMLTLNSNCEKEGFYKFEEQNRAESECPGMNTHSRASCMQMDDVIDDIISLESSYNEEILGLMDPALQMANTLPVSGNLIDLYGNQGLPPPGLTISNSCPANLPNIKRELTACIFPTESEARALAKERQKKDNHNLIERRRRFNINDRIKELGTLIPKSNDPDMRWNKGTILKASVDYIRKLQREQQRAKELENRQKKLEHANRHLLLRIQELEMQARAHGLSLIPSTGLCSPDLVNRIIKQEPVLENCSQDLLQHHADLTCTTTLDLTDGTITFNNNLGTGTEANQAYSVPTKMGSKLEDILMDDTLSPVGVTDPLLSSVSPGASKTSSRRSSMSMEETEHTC

[8] = A Cell Based Secondary Assay To Explore Cytotoxicity of Compounds that Sensitize Mycobacterium Tuberculosis to Beta-Lactam Antibiotics.; format: functional
Paired box protein Pax-8 = Paired box protein Pax-8 (Homo sapiens, UniProt Q06710); experiment: PAX8 transcriptional activity inhibition in RMG-I – RMG-I cells, luciferase, cherry-pick, dose response (AID 687027); format: functional, cell-based;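 also: luciferase reporter driven by Pax8 target thyroperoxidase promoter measured by SteadyGlo luminescence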
[9] = target: T5, Short transient receptor potential channel 4 (Mus musculus, UniProt Q9QUQ5); experiment: calcium entry via TRPC4 opening agents – cell-based, HEK293 TRPC4/mu-opioid, Fluo-4 calcium, dose response (AID 434937); format: functional
T5 sequence (Q9QUQ5 whole entry): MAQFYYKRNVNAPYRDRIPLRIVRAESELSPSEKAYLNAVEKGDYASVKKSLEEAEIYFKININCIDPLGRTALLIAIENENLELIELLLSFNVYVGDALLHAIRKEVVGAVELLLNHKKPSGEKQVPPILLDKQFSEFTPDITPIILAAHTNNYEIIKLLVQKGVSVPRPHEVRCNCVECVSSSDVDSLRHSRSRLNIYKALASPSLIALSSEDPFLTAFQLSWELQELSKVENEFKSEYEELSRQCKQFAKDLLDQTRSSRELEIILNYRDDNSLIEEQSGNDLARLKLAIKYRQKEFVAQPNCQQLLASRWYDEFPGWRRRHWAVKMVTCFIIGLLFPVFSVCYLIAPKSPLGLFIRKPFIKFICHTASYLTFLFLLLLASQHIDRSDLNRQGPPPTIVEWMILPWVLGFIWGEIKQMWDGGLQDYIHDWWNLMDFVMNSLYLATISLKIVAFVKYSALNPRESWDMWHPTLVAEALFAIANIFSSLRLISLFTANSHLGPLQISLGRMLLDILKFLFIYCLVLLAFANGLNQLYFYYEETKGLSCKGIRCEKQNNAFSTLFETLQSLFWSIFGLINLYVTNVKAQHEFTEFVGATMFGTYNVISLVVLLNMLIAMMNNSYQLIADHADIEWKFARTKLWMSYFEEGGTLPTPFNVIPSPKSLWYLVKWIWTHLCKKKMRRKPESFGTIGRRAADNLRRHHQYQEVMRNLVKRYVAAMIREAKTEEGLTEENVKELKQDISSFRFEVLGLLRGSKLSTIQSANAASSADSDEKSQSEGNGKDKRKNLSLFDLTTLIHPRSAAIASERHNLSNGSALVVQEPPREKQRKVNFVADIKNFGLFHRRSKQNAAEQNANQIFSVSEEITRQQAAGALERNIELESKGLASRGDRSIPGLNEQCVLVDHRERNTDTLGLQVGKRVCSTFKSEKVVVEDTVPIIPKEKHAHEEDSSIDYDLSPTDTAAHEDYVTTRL

[10] = NIH-3T3 fibroblast cytotoxicity, dose response, cytotoxicity control, cell-based, fluorescence, Alamar Blue, secondary assay (AID 2327); format: functional;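 also: NIH-3T3 mouse fibroblasts cultured with fluconazole at 8 µg/mL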
[11] = target: T6, Type-1 angiotensin II receptor (Homo sapiens, UniProt P30556); experiment: antagonism of angiotensin II type 1 receptor – cell-based, uHTS hits, selectivity assay for APJ receptor antagonist project, dose response (AID 463214); format: functional;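 also: antagonist potency against angiotensin II stimulated AT1 response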
T6 sequence (P30556 whole entry): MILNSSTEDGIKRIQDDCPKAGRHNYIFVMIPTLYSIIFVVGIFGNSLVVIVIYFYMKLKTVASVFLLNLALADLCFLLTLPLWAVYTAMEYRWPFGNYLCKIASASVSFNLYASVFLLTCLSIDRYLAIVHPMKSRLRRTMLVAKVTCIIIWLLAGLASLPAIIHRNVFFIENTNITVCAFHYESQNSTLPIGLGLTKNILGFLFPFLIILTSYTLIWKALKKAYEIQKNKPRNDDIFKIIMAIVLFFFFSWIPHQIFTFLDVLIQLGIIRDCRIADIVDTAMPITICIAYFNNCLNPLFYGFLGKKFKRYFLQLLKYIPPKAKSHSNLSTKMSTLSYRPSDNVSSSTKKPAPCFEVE

INS1 = experiment: INS-1E survival protection against cytokine death – cell-based, luminescence, retest, dose response (AID 449756); format: functional; details: Rattus norvegicus;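 also: cell death triggered by IL-1 beta plus TNF-alpha plus IFN-gamma mixture; protective hits raise ATP signal compared with cytokine alone wells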
Vero = experiment: mammalian cell viability reduction – secondary assay, cytotoxicity control for West Nile virus antiviral project, dose response (AID 1650); format: functional; details: Chlorocebus sabaeus
[12] = fluconazole-exposed Candida albicans growth modulators – fluorescence, retest, confirmation (AID 2467); format: functional, cell-based
Beta-galactosidase = Beta-galactosidase (Escherichia coli, UniProt Q8VNN2); experiment: PubChem AID 485352; format: functional
Beta-galactosidase, sequence (Q8VNN2 whole entry): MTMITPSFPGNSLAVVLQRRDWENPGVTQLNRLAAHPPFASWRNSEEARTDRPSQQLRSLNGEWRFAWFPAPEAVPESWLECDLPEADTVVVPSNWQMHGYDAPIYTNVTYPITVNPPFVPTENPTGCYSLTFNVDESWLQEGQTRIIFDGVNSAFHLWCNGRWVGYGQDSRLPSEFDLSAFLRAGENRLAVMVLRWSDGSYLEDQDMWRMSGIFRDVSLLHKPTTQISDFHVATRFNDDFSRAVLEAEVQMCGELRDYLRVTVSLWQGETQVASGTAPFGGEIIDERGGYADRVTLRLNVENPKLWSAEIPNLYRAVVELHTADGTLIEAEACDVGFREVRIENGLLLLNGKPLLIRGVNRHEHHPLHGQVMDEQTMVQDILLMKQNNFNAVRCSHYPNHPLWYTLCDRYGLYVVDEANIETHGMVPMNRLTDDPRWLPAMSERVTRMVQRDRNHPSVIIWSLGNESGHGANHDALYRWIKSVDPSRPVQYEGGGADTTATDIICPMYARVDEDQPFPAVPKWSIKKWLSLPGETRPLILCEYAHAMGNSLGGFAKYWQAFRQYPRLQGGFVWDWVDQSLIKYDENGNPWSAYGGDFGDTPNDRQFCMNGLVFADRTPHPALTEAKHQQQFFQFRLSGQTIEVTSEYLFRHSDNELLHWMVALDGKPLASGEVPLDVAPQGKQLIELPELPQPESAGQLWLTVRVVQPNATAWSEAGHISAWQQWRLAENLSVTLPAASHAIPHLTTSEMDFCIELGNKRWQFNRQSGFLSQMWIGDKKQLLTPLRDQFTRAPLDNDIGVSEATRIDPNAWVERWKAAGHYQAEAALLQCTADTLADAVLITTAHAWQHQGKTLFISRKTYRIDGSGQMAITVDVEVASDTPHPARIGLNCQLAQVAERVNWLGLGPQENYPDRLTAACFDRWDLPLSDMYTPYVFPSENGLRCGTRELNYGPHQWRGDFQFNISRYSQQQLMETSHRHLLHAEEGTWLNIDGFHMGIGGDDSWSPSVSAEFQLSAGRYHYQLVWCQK

Mothers against decapentaplegic homolog 3, sequence (P84022 whole entry): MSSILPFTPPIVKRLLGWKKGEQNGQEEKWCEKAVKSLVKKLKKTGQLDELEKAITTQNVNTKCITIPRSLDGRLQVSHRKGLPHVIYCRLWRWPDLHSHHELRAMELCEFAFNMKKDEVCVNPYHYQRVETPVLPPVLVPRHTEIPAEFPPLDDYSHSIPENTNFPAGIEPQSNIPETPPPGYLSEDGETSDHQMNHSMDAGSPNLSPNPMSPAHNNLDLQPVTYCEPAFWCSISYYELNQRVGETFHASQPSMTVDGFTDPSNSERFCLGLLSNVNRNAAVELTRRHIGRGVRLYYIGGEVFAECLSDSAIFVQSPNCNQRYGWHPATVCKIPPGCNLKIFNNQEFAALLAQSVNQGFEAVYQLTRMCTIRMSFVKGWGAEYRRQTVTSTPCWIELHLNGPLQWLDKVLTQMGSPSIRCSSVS
Cytochrome P450 2D6, sequence (P10635 whole entry): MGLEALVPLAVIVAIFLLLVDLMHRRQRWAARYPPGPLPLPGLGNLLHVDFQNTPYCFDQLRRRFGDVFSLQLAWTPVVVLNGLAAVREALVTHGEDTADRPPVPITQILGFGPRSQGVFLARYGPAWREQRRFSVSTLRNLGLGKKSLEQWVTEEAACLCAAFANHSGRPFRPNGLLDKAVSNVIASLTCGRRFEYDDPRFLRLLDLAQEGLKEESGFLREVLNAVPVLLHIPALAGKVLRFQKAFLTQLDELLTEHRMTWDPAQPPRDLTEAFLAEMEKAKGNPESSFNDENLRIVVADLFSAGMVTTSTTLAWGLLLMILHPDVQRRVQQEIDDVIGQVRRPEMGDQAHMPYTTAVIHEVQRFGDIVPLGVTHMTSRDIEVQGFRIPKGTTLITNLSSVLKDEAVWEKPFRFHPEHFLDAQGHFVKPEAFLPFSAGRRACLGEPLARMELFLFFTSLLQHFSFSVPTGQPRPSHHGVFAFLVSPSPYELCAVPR
Procathepsin L, sequence (P07711 whole entry): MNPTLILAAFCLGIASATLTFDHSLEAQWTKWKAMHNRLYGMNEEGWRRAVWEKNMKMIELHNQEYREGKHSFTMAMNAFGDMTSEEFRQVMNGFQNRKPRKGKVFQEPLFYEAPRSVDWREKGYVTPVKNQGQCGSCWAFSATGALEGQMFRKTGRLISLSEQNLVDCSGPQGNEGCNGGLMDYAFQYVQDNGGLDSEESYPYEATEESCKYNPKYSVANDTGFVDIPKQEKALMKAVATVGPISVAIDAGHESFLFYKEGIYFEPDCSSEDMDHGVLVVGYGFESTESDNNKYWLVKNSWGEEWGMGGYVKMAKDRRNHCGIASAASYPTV
G-protein coupled receptor 55, sequence (Q9Y2T6 whole entry): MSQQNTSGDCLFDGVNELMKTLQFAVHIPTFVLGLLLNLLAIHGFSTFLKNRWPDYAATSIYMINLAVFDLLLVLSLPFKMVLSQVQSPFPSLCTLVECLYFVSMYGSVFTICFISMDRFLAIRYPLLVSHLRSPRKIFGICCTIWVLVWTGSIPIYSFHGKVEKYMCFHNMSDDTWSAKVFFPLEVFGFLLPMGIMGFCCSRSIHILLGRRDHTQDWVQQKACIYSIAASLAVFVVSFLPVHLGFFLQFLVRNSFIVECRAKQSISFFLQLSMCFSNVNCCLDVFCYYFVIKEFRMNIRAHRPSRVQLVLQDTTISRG
Paired box protein Pax-8, sequence (Q06710 whole entry): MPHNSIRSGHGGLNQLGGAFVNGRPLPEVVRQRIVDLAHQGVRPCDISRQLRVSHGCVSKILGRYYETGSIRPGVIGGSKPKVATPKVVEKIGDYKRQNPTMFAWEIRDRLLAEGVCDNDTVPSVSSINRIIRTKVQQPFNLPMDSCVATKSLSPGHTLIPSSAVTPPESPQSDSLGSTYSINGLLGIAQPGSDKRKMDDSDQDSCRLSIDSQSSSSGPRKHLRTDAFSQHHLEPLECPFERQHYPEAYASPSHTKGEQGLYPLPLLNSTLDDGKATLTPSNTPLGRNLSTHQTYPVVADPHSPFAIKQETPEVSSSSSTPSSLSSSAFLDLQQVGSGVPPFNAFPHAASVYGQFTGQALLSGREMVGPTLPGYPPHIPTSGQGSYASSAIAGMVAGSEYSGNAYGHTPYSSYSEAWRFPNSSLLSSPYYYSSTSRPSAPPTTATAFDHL

With COc1ccc(C(c2cc3c(cc2O)OCO3)N2CCOCC2)c(OC)c1 (stereo unspecified) as the molecule, how does the IC50 [1] read?
The IC50 was > 40 µM (not active).

What does the source list for Cc1sc(NC(=O)C2CC(Cl)=CCC2C(=O)O)c(C#N)c1C (stereo unspecified)?
IC50 (Procathepsin L): > 59.6 µM (not active); IC50 (Aspartyl aminopeptidase): > 73.5 µM (not active); IC50 (Leucine aminopeptidase): 1.73 µM (active)

With COc1cc2c(cc1O)CCN[C@H]2C as the molecule, how does the AC50 (Cytochrome P450 2D6) read?
Its AC50 is 20 µM (inconclusive).

For CCCCc1ccc(NC(=S)NCCc2ccc(S(N)(=O)=O)cc2)cc1, which EC50 [2] is on record?
The EC50 was > 100 µM (not active).

For O=C1C=CC(=C(c2ccc(O)c(O)c2)c2ccccc2S(=O)(=O)O)C=C1O [PYROCATECHOL VIOLET], which IC50 [1] is on record?
The IC50 was 3.28 µM (not active).

With c1ccc(-c2c(-c3ccccc3)n(Cc3ccco3)c3ncnc(NCCCn4ccnc4)c23)cc1 as the molecule, how does the IC50 [3] read?
Its IC50 is 2.09 µM (active).

What about the AC50 [4] of the same molecule?
The AC50 was 2.53 µM (active).

And the EC50 [2]?
Its EC50 is 63 µM (not active).

What about the AC50 [5] of the same molecule?
Its AC50 is 5.23 µM (active).

And the IC50 [6]?
The IC50 was 17.8 µM (active).

Which IC50 (Procathepsin L) does the source give for COC(=O)c1c(-c2cc(C)ccc2C)csc1NC(=O)C1CC=CCC1C(=O)O (stereo unspecified) here?
The IC50 was > 59.6 µM (not active).

What about the IC50 (Aspartyl aminopeptidase) of the same molecule?
The IC50 was > 73.5 µM (not active).

And the IC50 (Leucine aminopeptidase)?
Its IC50 is < 1 µM (active).

What does the source list for C=C1C(=O)O[C@@H]2[C@H]1[C@@H](OC(=O)/C(C)=C/C)C/C(C)=C\C(=O)/C=C(\C)[C@@H]2O?
AC50 [7]: 7.07 µM (active); CC50 [8]: 4.26 µM (active); AC50 (Paired box protein Pax-8): 4.03 µM (active)

Which AC50 (Cytochrome P450 2D6) does the source give for COc1ccc(OC2C=CC(c3ccccc3)OC2CO)cc1 (stereo unspecified) here?
The AC50 was 6.31 µM (inconclusive).

What does the source list for CC(C)(C)C(=O)NC(=S)NNC(=O)c1ccc(-c2ccccc2)cc1?
EC50 [9]: 1.5 µM (active); EC50 [10]: 3.25 µM (active); IC50 [11]: 10.8 µM (active); AC50 (INS1): 2.14 µM (active); CC50 (Vero): 4.57 µM (active); EC50 [12]: 694 nM (active); EC50 (Beta-galactosidase): > 40 µM (inactive)
